Results reported in US6841701B2, “Inhibitors for the blood-clotting factor Xa” (Curacyte AG, priority 2000, dated 2005).
Where a name gives a salt, the structure may show the parent alone. Read-outs that look alike come from different tables or passages of the source.

Legend:
[1] = target: F Xa (Homo sapiens, UniProt P00742); conditions: cited from earlier work
[2] = system: human citrate plasma; assay: Inhibition of the coagulation of human plasma: activated partial thromboplastin time (aPTT); format: biochemical
Method: (§1) Determination of the Inhibition of Coagulation
(§2) For the determination of the prothrombin time (PT), 100 μl of thromboplastin (Dade, Unterschleiβheim) and 100 μl of inhibitor, dissolved in CaCl2 (0.05 M, 5% ethanol) were incubated at 37° C. for 2 min and the coagulation was started by addition of 100 μl of human citrate plasma. For the determination of the activated partial thromboplastin time (aPTT), 100 μl of human citrate plasma were incubated with 100 μl of aPTT reagent (Roche Diagnostics, Mannheim) at 37° C. for 3 min and the coagulation was started by addition of 100 μl of inhibitor, dissolved in CaCl2 (0.05 M, 5% ethanol). The coagulation times were determined using the Thrombotrack coagulometer (Immuno, Heidelberg).

[3] = system: human citrate plasma; assay: Inhibition of the coagulation of human plasma: prothrombin time (PT); format: biochemical
Method: as §1, §2

Chain of F Xa (P00742 235-488 limits assumed): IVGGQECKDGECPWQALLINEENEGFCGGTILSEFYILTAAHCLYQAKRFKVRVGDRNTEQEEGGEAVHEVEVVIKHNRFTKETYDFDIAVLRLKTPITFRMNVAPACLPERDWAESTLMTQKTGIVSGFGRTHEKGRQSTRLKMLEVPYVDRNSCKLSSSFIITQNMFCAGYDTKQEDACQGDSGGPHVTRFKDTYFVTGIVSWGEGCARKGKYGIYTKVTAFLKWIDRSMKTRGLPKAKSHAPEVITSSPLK
Chain of F Xa (P00742 41-179 partner limits assumed): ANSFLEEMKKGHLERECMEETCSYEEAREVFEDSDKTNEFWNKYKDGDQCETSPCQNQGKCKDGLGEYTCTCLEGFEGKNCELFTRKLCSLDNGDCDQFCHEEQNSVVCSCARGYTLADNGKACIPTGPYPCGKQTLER

Structure (SMILES): N=C(N)c1ccc(C=C2CCCCC(=Cc3ccc(C(=N)N)cc3)C2=O)cc1 [BABCH]
- Ki ([1]; literature): 13 nM

Structure (SMILES): N=C(N)c1ccc(CNC(=O)CNC(=O)[C@@H](COCc2ccccc2)NS(=O)(=O)Cc2ccccc2)cc1 [Benzylsulfonyl-D-Ser(Bz)-Gly-4-amidinobenzylamide×TFA]
- Prolongation of the coagulation time (%) aPTT ([2]; Concentration 0.1 μM): 111%
- Prolongation of the coagulation time (%) aPTT ([2]; Concentration 0.21 μM): 122%
- Prolongation of the coagulation time (%) aPTT ([2]; Concentration 0.42 μM): 146%
- Prolongation of the coagulation time (%) aPTT ([2]; Concentration 0.83 μM): 185%
- Prolongation of the coagulation time (%) aPTT ([2]; Concentration 1.7 μM): 260%
- Prolongation of the coagulation time (%) aPTT ([2]; Concentration 3.3 μM): 385%
- Prolongation of the coagulation time (%) PT ([3]; Concentration 0.1 μM): 119%
- Prolongation of the coagulation time (%) PT ([3]; Concentration 0.21 μM): 127%
- Prolongation of the coagulation time (%) PT ([3]; Concentration 0.42 μM): 153%
- Prolongation of the coagulation time (%) PT ([3]; Concentration 0.83 μM): 198%
- Prolongation of the coagulation time (%) PT ([3]; Concentration 1.7 μM): 266%
- Prolongation of the coagulation time (%) PT ([3]; Concentration 3.3 μM): 386%

Structure (SMILES): N=C(N)c1ccc(CNC(=O)[C@@H]2CCN2C(=O)[C@H](NCC(=O)O)C2CCCCC2)cc1 [melagatran]
- Ki ([1]; literature (Gustafsson et al. 1996)): 2800 nM
